This is an account of results in patent US20260191968A1, “PROTAC DEGRADERS OF MLLT1 AND/OR MLLT3” (DARK BLUE THERAPEUTICS LTD, priority 2024, published 2026).

In this assay the target is T1, MLLT1 (Homo sapiens, UniProt Q03111).
T1 construct: host or cells: MV4-11
T1 sequence (Q03111 1-559): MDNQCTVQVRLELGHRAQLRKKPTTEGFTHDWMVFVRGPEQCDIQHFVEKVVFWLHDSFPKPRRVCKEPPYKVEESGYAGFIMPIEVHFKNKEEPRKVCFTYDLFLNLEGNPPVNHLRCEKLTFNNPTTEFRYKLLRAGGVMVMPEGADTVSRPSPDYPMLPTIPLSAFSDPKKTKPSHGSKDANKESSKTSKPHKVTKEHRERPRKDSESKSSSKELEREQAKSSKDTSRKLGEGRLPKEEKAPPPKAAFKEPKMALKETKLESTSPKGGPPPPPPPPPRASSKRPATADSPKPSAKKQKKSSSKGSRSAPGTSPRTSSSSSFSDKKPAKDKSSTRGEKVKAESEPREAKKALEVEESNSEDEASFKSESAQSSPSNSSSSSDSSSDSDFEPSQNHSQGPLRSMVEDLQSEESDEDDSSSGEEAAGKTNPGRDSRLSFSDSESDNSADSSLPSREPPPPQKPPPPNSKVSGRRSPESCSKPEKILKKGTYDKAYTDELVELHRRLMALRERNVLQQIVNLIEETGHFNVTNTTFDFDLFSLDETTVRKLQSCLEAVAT
Nature of the assay: MLLT1 degradation assay in MV4-11 cells (JESS chemiluminescent detection), three concentrations, 24 h. In kind it is cell-based. The conditions noted are these: with respect to DMSO control. The protocol:
MLLT1 degradation efficacy of compounds were tested in an automated chemiluminescent detection system (JESS, Cat #004-650). […] 10 mM DMSO stocks were prepared, and cells were treated with three concentrations of test compounds viz. 1000, 100 and 10 nM at a final DMSO concentration of 0.1% and incubated for 24 h at 37° C., 5% CO2. […] Post run, data were analysed using “Compass for SW” software for chemiluminescent detection. The peak area for each band was used for the calculation of MLLT1 degradation with respect to DMSO control. Data is shown as “MLLT1% degradation”.

With `CN1CCC[C@@H]1c1[nH]c2cc(NC(=O)c3ccc(CCCCC#Cc4cccc5c4CN(C4CCC(=O)NC4=O)C5=O)nc3)ncc2c1Cl` (stereo partly drawn) [Example 71, N-(3-chloro-2-((R)-1-methylpyrrolidin-2-yl)-1H-pyrrolo[3,2-c]pyridin-6-yl)-6-(6-(2-(2,6-dioxopiperidin-3-yl)-1-oxoisoindolin-4-yl)hex-5-yn-1-yl) nicotinamide], the “MLLT1% Degradation @ 0.01 μM” value is reported as “A (Category A: A ≥ 75% degradation)”, the “MLLT1% Degradation @ 0.1 μM” value is “A (Category A: A ≥ 75% degradation)” and the “MLLT1% Degradation @ 1 μM” value was “B (Category B: 50% ≤ B < 75% degradation)”.
Regarding `CN1CCC[C@@H]1c1cc2cnc(NC(=O)c3ccc(CCCC#Cc4ccc5c(c4)C(=O)N(C4CCC(=O)NC4=O)C5)cc3)cc2[nH]1` (stereo partly drawn) [Example 225, 4-(5-(2-(2,6-dioxopiperidin-3-yl)-3-oxoisoindolin-5-yl)pent-4-yn-1-yl)-N-(2-((R)-1-methylpyrrolidin-2-yl)-1H-pyrrolo[3,2-c]pyridin-6-yl)benzamide], the “MLLT1% Degradation @ 0.01 μM” value is “C (Category C: 25% ≤ C < 50% degradation)”, the “MLLT1% Degradation @ 0.1 μM” value is recorded as “C (Category C: 25% ≤ C < 50% degradation)” and the “MLLT1% Degradation @ 1 μM” value was “C (Category C: 25% ≤ C < 50% degradation)”.
For the compound `C[C@H]1CN(CC2CCN(c3cccc4c3CN(C3CCC(=O)NC3=O)C4=O)CC2)CCN1c1ccc(C(=O)Nc2cc3[nH]c([C@H]4CCCN4C)cc3cn2)cn1` (stereo partly drawn) [Example 127, 6-((2S)-4-((1-(2-(2,6-dioxopiperidin-3-yl)-1-oxoisoindolin-4-yl)piperidin-4-yl)methyl)-2-methylpiperazin-1-yl)-N-(2-((R)-1-methylpyrrolidin-2-yl)-1H-pyrrolo[3,2-c]pyridin-6-yl)nicotinamide], the “MLLT1% Degradation @ 0.01 μM” value was “B (Category B: 50% ≤ B < 75% degradation)”, the “MLLT1% Degradation @ 0.1 μM” value is reported as “B (Category B: 50% ≤ B < 75% degradation)” and the “MLLT1% Degradation @ 1 μM” value is reported as “B (Category B: 50% ≤ B < 75% degradation)”.
Consider `CN1CCC[C@@H]1c1cc2cnc(NC(=O)c3ccc(CCCN4CCC(c5cccc6c5CN(C5CCC(=O)NC5=O)C6=O)CC4)cc3)cc2[nH]1` (stereo partly drawn) [Example 198, 4-(3-(4-(2-(2,6-dioxopiperidin-3-yl)-1-oxoisoindolin-4-yl)piperidin-1-yl)propyl)-N-(2-((R)-1-methylpyrrolidin-2-yl)-1H-pyrrolo[3,2-c]pyridin-6-yl)benzamide], for which the “MLLT1% Degradation @ 0.01 μM” value was “C (Category C: 25% ≤ C < 50% degradation)”, the “MLLT1% Degradation @ 0.1 μM” value was “A (Category A: A ≥ 75% degradation)” and the “MLLT1% Degradation @ 1 μM” value is recorded as “A (Category A: A ≥ 75% degradation)”.
With `CN1CCC[C@@H]1c1cc2cnc(NC(=O)c3ccc(CCCCC#Cc4ccc5c(c4)CN(C4CCC(=O)NC4=O)C5=O)cc3F)cc2[nH]1` (stereo partly drawn) [Example 223, 4-(6-(2-(2,6-dioxopiperidin-3-yl)-1-oxoisoindolin-5-yl)hex-5-yn-1-yl)-2-fluoro-N-(2-((R)-1-methylpyrrolidin-2-yl)-1H-pyrrolo[3,2-c]pyridin-6-yl)benzamide], the “MLLT1% Degradation @ 0.01 μM” value is listed as “D (Category D: D < 25% degradation)”, the “MLLT1% Degradation @ 0.1 μM” value is listed as “C (Category C: 25% ≤ C < 50% degradation)” and the “MLLT1% Degradation @ 1 μM” value was “D (Category D: D < 25% degradation)”.
On to `CN1CCC[C@@H]1c1cc2cnc(NC(=O)c3cccc(N4CCN(CC5CCN(c6ccc7c(c6)C(=O)N(C6CCC(=O)NC6=O)C7=O)CC5)CC4)c3)cc2[nH]1` (stereo partly drawn) [Example 220, 3-(4-((1-(2-(2,6-dioxopiperidin-3-yl)-1,3-dioxoisoindolin-5-yl)piperidin-4-yl)methyl)piperazin-1-yl)-N-(2-((R)-1-methylpyrrolidin-2-yl)-1H-pyrrolo[3,2-c]pyridin-6-yl)benzamide], for which the “MLLT1% Degradation @ 0.01 μM” value is “D (Category D: D < 25% degradation)”, the “MLLT1% Degradation @ 0.1 μM” value is “C (Category C: 25% ≤ C < 50% degradation)” and the “MLLT1% Degradation @ 1 μM” value is reported as “B (Category B: 50% ≤ B < 75% degradation)”.
The like results for `CN1CCC[C@@H]1c1cc2cnc(NC(=O)c3ccc(N4CCN(CC5CCN(c6ccc(C(=O)N[C@H]7CCC(=O)NC7=O)nc6)CC5)CC4)cc3)cc2[nH]1` [Example 181, N—((S)-2,6-dioxopiperidin-3-yl)-5-(4-((4-(4-((2-((R)-1-methylpyrrolidin-2-yl)-1H-pyrrolo[3,2-c]pyridin-6-yl)carbamoyl)phenyl)piperazin-1-yl)methyl)piperidin-1-yl)picolinamide] were, in that order, “D (Category D: D < 25% degradation)”, “C (Category C: 25% ≤ C < 50% degradation)” and “B (Category B: 50% ≤ B < 75% degradation)”.
For `CN1CCC[C@@H]1c1[nH]c2cc(NC(=O)c3ccc(OCCC4CCN(c5cccc6c5CN(C5CCC(=O)NC5=O)C6=O)CC4)cc3)ncc2c1Cl` (stereo in doubt) [Example 162, N-(3-chloro-2-((R)-1-methylpyrrolidin-2-yl)-1H-pyrrolo[3,2-c]pyridin-6-yl)-4-(2-(1-(2-((rel-R)-2,6-dioxopiperidin-3-yl)-1-oxoisoindolin-4-yl)piperidin-4-yl)ethoxy)benzamide] the same measures were “A (Category A: A ≥ 75% degradation)”, “A (Category A: A ≥ 75% degradation)” and “A (Category A: A ≥ 75% degradation)”.
For `CN1CCC[C@@H]1c1cc2cnc(NC(=O)c3ccc(N4CCC(OCC5CCN(c6ccc7c(c6)CN(C6CCC(=O)NC6=O)C7=O)CC5)CC4)nc3)cc2[nH]1` (stereo partly drawn) [Example 228, 6-(4-((1-(2-(2,6-dioxopiperidin-3-yl)-1-oxoisoindolin-5-yl)piperidin-4-yl)methoxy)piperidin-1-yl)-N-(2-((R)-1-methylpyrrolidin-2-yl)-1H-pyrrolo[3,2-c]pyridin-6-yl)nicotinamide] the same measures were “C (Category C: 25% ≤ C < 50% degradation)”, “D (Category D: D < 25% degradation)” and “D (Category D: D < 25% degradation)”.
Regarding `CN1CCC[C@@H]1c1cc2cnc(NC(=O)c3ccc(N4CC[C@H](CC#Cc5cccc6c5CN(C5CCC(=O)NC5=O)C6=O)C4)nc3)cc2[nH]1` (stereo partly drawn) [Example 187, 6-((3S)-3-(3-(2-(2,6-dioxopiperidin-3-yl)-1-oxoisoindolin-4-yl)prop-2-yn-1-yl)pyrrolidin-1-yl)-N-(2-((R)-1-methylpyrrolidin-2-yl)-1H-pyrrolo[3,2-c]pyridin-6-yl)nicotinamide], the “MLLT1% Degradation @ 0.01 μM” value is recorded as “B (Category B: 50% ≤ B < 75% degradation)”, the “MLLT1% Degradation @ 0.1 μM” value is given as “B (Category B: 50% ≤ B < 75% degradation)” and the “MLLT1% Degradation @ 1 μM” value is reported as “B (Category B: 50% ≤ B < 75% degradation)”.
In the case of `CN1CCC[C@@H]1c1cc2cnc(NC(=O)c3ccc(N4CCC(CN5CCN(c6cccc7c6CN(C6CCC(=O)NC6=O)C7=O)CC5)CC4)cc3)cc2[nH]1` (stereo partly drawn) [Example 92, 4-(4-((4-(2-(2,6-dioxopiperidin-3-yl)-1-oxoisoindolin-4-yl)piperazin-1-yl)methyl)piperidin-1-yl)-N-(2-((R)-1-methylpyrrolidin-2-yl)-1H-pyrrolo[3,2-c]pyridin-6-yl)benzamide], the “MLLT1% Degradation @ 0.01 μM” value is reported as “B (Category B: 50% ≤ B < 75% degradation)”, the “MLLT1% Degradation @ 0.1 μM” value is recorded as “B (Category B: 50% ≤ B < 75% degradation)” and the “MLLT1% Degradation @ 1 μM” value is on record as “B (Category B: 50% ≤ B < 75% degradation)”.
For the compound `CN1CCC[C@@H]1c1cc2cnc(NC(=O)CCCCCCNc3ccc4c(c3)C(=O)N(C3CCC(=O)NC3=O)C4=O)cc2[nH]1` (stereo partly drawn) [Example 27, 7-{[2-(2,6-dioxopiperidin-3-yl)-1,3-dioxoisoindol-5-yl]amino}-N-{2-[(2R)-1-methylpyrrolidin-2-yl]-1H-pyrrolo[3,2-c]pyridin-6-yl}heptanamide], the “MLLT1% Degradation @ 0.01 μM” value is “C (Category C: 25% ≤ C < 50% degradation)”, the “MLLT1% Degradation @ 0.1 μM” value is “C (Category C: 25% ≤ C < 50% degradation)” and the “MLLT1% Degradation @ 1 μM” value is on record as “B (Category B: 50% ≤ B < 75% degradation)”.
For the compound `CN1CCC[C@@H]1c1cc2cnc(NC(=O)c3ccc(OCCC4CCN(c5ccc(C(=O)N[C@H]6CCC(=O)NC6=O)c(F)c5)CC4)cc3F)cc2[nH]1` [Example 215, N—((S)-2,6-dioxopiperidin-3-yl)-2-fluoro-4-(4-(2-(3-fluoro-4-((2-((R)-1-methylpyrrolidin-2-yl)-1H-pyrrolo[3,2-c]pyridin-6-yl)carbamoyl)phenoxy)ethyl)piperidin-1-yl)benzamide], the “MLLT1% Degradation @ 0.01 μM” value was “D (Category D: D < 25% degradation)”, the “MLLT1% Degradation @ 0.1 μM” value is “C (Category C: 25% ≤ C < 50% degradation)” and the “MLLT1% Degradation @ 1 μM” value was “C (Category C: 25% ≤ C < 50% degradation)”.
